The test system of assay [1] is steroid 5α-reductase. To be noted: cited from earlier work; for Reversible / Irreversible inhibition: Table 1, in words beside Ki; for Ki: Table 1, literature references.
The target of assay [2] is T1, Human Prostatic Steroid 5α-Reductase (Homo sapiens, UniProt P31213).
T1 construct: Prostatic particles were obtained by differential centrifugation; from tissue; host or cells: frozen human prostates (hyperplastic), 140,000 × g particulate fraction
T1 sequence (P31213 1-254): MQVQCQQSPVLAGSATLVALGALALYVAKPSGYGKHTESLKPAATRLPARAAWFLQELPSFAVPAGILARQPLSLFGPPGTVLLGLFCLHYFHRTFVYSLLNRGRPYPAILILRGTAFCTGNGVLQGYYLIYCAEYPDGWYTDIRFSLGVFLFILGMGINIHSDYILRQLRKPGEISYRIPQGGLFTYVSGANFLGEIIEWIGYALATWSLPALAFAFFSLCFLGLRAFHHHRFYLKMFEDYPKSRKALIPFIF
Put plainly: Inhibition of human steroid 5α-reductase using tissue from hyperplastic human prostates ([14C]-testosterone conversion, Dixon analysis). The class given is biochemical. As for the experimental part:
Such diseases and conditions include acne vulgaris, seborrhea, female hirsutism, prostate diseases such as benign prostatic hypertrophy, and male pattern baldness. several compounds of the invention were tested for potency in inhibiting human steroid 5α-reductase using tissue from hyperplastic human prostates. In determining potency in inhibiting the human enzyme, the following procedure was employed:
Frozen human prostates were thawed and minced into small pieces (5 mm^3). The tissue was homogenized in 3 to 5 volumes of 20 mM potassium phosphate, pH 6.5, buffer containing 0.33 M sucrose, 1 mM dithiothreitol, and 50 μM NADPH with a Brinkmann Polytron (Sybron Corporation, Westbury, N.Y.). The solution was subjected to sonication for 3 to 5 minutes with a Sonifier (Branson Sonic Power Co.) followed by hand homogenization in a glass-to-glass Dounce homogenizer (Kontes Glass Company, Vineland, N.J.).
Prostatic particles were obtained by differential centrifugation at 600 to 1000 × g for 20 minutes and 140,000 × g for 60 minutes at 4° C. The pellet obtained from the 140,000 × g centrifugation was washed with 5 to 10 tissue volumes of the buffer described above and recentrifuged at 140,000 × g. The resulting pellet was suspended in 20 mM potassium phosphate buffer, pH 6 5, containing 20% glycerol, 1 mM dithiothreitol, and 50 μM NADPH. The suspended particulate solution was stored at -80° C.
A constant amount of [^14 C]-testosterone (52 to 55 mCi/mmol, New England Nuclear, Boston, Mass.) in ethanol and varying amounts of the potential inhibitor in ethanol were deposited in test tubes and concentrated to dryness in a SAVANT Speed Vac. To each tube was added buffer, 20 μl of 10 mM NADPH and an aliquot of prostatic particulate solution to a final volume of 1.0 ml of 50 mM sodium citrate, pH 5.0. After incubating the solution at 37° C. for 20 to 30 minutes the reaction was quenched by the addition of 4 ml ethyl acetate and 0.25 μmol each of testosterone, dihydrotestosterone, androst-aneidiol, and androst-anedione as carriers. The organic layer was removed to a second test tube and evaporated to dryness in a Speed Vac. The residue was dissolved in 20 to 30 μl chloroform, spotted on an individual lane of a 20×20 cm prechannelled silica gel TLC plate (Si 250F-PA, Baker Chemical) and developed twice with acetone:chloroform (1:9). The radiochemical content in the bands of the substrate and the products was determined with a BIOSCAN Imaging Scanner (Bioscan, Inc., Washington, D.C.). The percent of recovered radiolabel converted to product was calculated, from which enzyme activity was determined. All incubations were conducted such that no more than 12% of the substrate (testosterone) was consumed.
The experimentally obtained data was computer fitted to a linear function by plotting the reciprocal of the enzyme activity (1/velocity) against the variable inhibitor concentration (Dixon, M. (1953), Biochem. J., 55, 170). Assuming that the steroidal inhibitor is a competitive inhibitor against testosterone, a value for the inhibition constant (Ki) can be calculated from equation 1:
Ki =(B/A)/(S/Km +1) Equation 1

Assay [3] deals with human steroid 5α-reductase. To be noted: read-out: Km (Michaelis-Menton constant of the substrate); testosterone as substrate. The text has this:
where B is the intercept on the 1/velocity axis, A is the slope of the line, S is the concentration of substrate (testosterone) used in the experiment, and Km is the Michaelis-Menton constant of the substrate (testosterone)

[4] abbreviates: human prostatic particulate, pH 5.0, 37° C., 20 to 30 minutes, competitive inhibition against testosterone assumed, read-out: Ki , app.

Read-outs that look alike come from different tables or passages of the source.

Take `C[C@]12CC[C@H]3[C@@H](CCC4=CC(=O)CC[C@@]43C)[C@@H]1CC[C@@H]2C(=O)O`: in assay [1], the “Reversible / Irreversible inhibition” value is on record as “Reversible” and the Ki is 1100 nM.
As for `CC(=O)[C@H]1CC[C@H]2[C@@H]3CC=C=CC(=O)CCC(=O)[C@H]3CC[C@]12C`, in assay [1], the “Reversible / Irreversible inhibition” value is reported as “Irreversible” and the Ki is 1000 nM.
Take `CC(CO)[C@H]1CC[C@H]2[C@@H]3CC[C@H]4C(=[N+]=[N-])C(=O)CC[C@]4(C)[C@H]3CC[C@]12C` (some centres unmarked): in assay [1], the “Reversible / Irreversible inhibition” value was “Irreversible” and the Ki is 3.5 nM. Also, the “time dependence of inhibition (in words)” value in assay [1] (literature) is reported as “potent, time-dependent inhibitor”.
With `CC(C)N(C(=O)[C@H]1CC[C@H]2[C@@H]3CC=C4C=C([PH](=O)O)CC[C@]4(C)[C@H]3CC[C@]12C)C(C)C` [Example 1, 17β-N,N-Diisopropylcarboxamido-androst-3,5-diene-3-phosphinic acid], the Ki in assay [2] (setting [4]) was 7 nM.
As to `CC(C)(C)NC(=O)[C@H]1CC[C@H]2[C@@H]3CC=C4C=C([PH](=O)O)CC[C@]4(C)[C@H]3CC[C@]12C` [Example 2, 17β-N-t-Butylcarboxamide-androst-3,5-diene-3-phosphinic acid], the Ki in assay [2] (setting [4]) was found to be 35 nM.
With `CC(C)N(C(=O)[C@H]1CC[C@H]2[C@@H]3CC[C@H]4CC([PH](=O)O)=CC[C@]4(C)[C@H]3CC[C@]12C)C(C)C` [Example 3, 17β-N,N-Diisopropylcarboxamide-5α-androst-2-ene-3-phosphinic Acid], the Ki in assay [2] was determined as 15 nM.
For the compound `CC(C)N(C(=O)[C@H]1CC[C@H]2[C@@H]3CC[C@H]4C=C([PH](=O)O)CC[C@]4(C)[C@H]3CC[C@]12C)C(C)C` [Example 5, 17β-N,N-Diisopropylcarboxamido-5α-androst-3-ene-3-phosphinic acid], the Ki in assay [2] (setting [4]) amounted to 25 nM.
Compound `CC(C)N(C(=O)[C@H]1CC[C@H]2[C@@H]3CCC4=CC([PH](=O)O)=CC[C@]4(C)[C@H]3CC[C@]12C)C(C)C` [Example 7, 7β-N,N-Diisopropylcarboxamido-androst-2,4-diene-3-phosphinic acid] yielded a Ki in assay [2] of 20 nM.
On to `CC(C)N(C(=O)[C@H]1CC[C@H]2[C@@H]3CC=C4C=C(P(C)(=O)O)CC[C@]4(C)[C@H]3CC[C@]12C)C(C)C` [Example 9, 17β-N,N-diisopropylcarboxamido-androst-3,5-diene-3-methylphosphinic acid], for which the Ki in assay [2] (setting [4]) came out at 55 nM.
In general, Km refers to the concentration of substrate that gives half-maximal velocity. For the compound `C[C@]12CC[C@H]3[C@@H](CCC4=CC(=O)CC[C@@]43C)[C@@H]1CC[C@@H]2O` [testosterone], the Michaelis constant (Km) in assay [3] came out at 4.5 µM.

The values above are taken from patent US5026882A, “Phosphinic acid substituted steroids as inhibitors of steroid 5α-reductase” (priority 1988, dated 1991).
